Like-named read-outs stand apart in the source and are kept apart here.
Assays:
[1] = Dynamic light scattering size distribution of self-assembled adducts in water; type: physicochemical; details: DLS, room temperature
[2] = tested on: Pseudomonas aeruginosa; experiment: MIC and MBC antibacterial test; type: cell-based; details: 30 °C; for MIC: 24 h
Protocol: (§1) All complexes were tested for antibacterial activity against both […] bacteria. The antibacterial function of complexes, represented as the diameter of the growth-inhibition region in millimeters, is shown in Figure 8. The minimum inhibitory concentration (MIC) and minimum bactericidal concentration (MBC) of complexes needed to inhibit bacterial growth are presented in Table 4. The MBC is identified by the determination of the lowest concentration of antibacterial agents that reduces the viability of the initial bacterial inoculum by a predetermined reduction of 99.9%. The value agreed on in two or more occasions was adopted as the MIC or MBC strain. Chloramphenicol was used for control purposes. From the inhibition zone, as well as the MIC and MBC data, one can conclude the following: Firstly, both complexes were active, but the activity was less than that for the normal drug (chloramphenicol).
(§2) The synthesized complexes were tested against both […] bacteria for antibacterial activity. The bacteria were incubated by shaking in the thermostat at 30 °C overnight. At this stage, a loop of each culture was placed in 10 mL of 10-fold diluted broth, and the test bacteria cultures containing 10^5 mL^−1 cells were used for antimicrobial testing. […] MIC and MBC as recommended by the NCCLS (National Committee for Clinical Laboratory Standards, Albany, NY, USA). After 24 h of incubation, the MIC was read at 30 °C equivalent to the concentration of the tube without visible growth to measure the effect of decreased antibiotic/antiseptic concentrations over a defined period of time on the inhibition of microbial population growth. These assessments may be quite useful during the R&D phase of the product to determine the appropriate concentrations required in the final product, since the concentration of the drug required to produce the effect is normally several hundreds to thousands of times lower than the concentration found in the completed dosage form.

[3] = tested on: Escherichia coli; experiment: MIC and MBC antibacterial test; type: cell-based; details: 30 °C
Protocol: as §1, §2

[4] = tested on: Enterococcus; experiment: MIC and MBC antibacterial test; type: cell-based; details: 30 °C; for MIC: 24 h
Protocol: as §1, §2

[5] = tested on: Staphylococcus aureus; experiment: MIC and MBC antibacterial test; type: cell-based; details: 30 °C; for MIC: 24 h
Protocol: as §1, §2

[6] = target: T1, BSA (Bos taurus, UniProt P02769); details: for ΔHº / ΔSº: 288–308 K
T1 sequence (P02769 25-607): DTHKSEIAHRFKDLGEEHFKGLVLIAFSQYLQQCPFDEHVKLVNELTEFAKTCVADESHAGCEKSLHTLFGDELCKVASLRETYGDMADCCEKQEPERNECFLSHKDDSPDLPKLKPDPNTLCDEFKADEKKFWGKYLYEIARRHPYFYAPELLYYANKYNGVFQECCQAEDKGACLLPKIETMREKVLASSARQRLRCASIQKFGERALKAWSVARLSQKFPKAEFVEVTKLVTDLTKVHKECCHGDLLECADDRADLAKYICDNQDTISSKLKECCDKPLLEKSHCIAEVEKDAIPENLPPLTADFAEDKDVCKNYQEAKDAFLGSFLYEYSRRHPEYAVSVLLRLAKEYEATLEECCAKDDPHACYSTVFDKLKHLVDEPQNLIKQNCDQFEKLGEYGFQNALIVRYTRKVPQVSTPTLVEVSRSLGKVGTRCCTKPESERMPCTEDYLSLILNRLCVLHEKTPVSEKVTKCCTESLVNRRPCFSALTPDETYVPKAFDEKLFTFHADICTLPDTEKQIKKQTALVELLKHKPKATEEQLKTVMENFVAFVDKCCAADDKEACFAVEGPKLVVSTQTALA
Protocol: The association constants and number of binding sites between the zinc complexes and BSA were calculated according to Equation (4). (4) logF0−F/F=logKA+nlogQ
In general, ΔGº reflects the spontaneity of the reaction, whereas ΔHº and ΔSº are the main quantities for determining the binding force. The thermodynamic parameters of ΔHº and ΔSº were calculated using Equation (5), and the Gibbs free energy was estimated from Equation (6). lnKA = −ΔHº/RT + ΔSº/R(5) ΔGº = ΔHº − TΔSº = −RT ln KA(6)

[7] = target: T1, BSA; experiment: Cyclic voltammetry of BSA with zinc complexes; details: for BSA cathodic peak potential after addition of complex: BSA alone approximately −0.39 V, water, Ag/AgCl reference; for kR/kO binding constants: reduced over oxidized form
Protocol: Cyclic voltammograms of BSA in water in the presence and absence of zinc complexes were used for a voltammetric study.
The optical absorptions were performed using a 1.0 cm quartz cell on a JASCO spectrophotometer (V-780). Fluorescence measurements were carried out using the JASCO spectrofluorometer (FP-8300 model). The excitation wavelength was set at 280 nm, and the wavelength of the emission was set to 285–600 nm. Picosecond fluorescence decay profiles were measured using the FluoTime 300 (Pico Quant, Berlin, Germany) by the single-photon counting method. Lifetimes were evaluated using software supplied with the instrument. The time-resolved fluorescence instrumentation was the same as for steady-state experiments. Cyclic voltammograms were carried out on a Gamry setup with a carbon working electrode and a platinum wire as a counter electrode. A silver–silver chloride (Ag/AgCl) electrode was used as a reference electrode. All tests were carried out in oxygen-free solutions, and sodium sulfate was used as an electrolyte support. Dynamic light scattering (DLS) was used to determine the distribution profile of the particle size in the solution.

[8] = target: T1, BSA; details: T = 298 K
From the text: The Förster resonance energy transfer (FRET) mechanism allows the excitation energy to be passed from the donor to the acceptor without photon emission from the former molecular system. According to the FRET principle, the rate of energy transfer depends on the distance between the donor and the acceptor, the orientation of the donor and the acceptor dipoles, and the degree of overlap between the donor emission spectrum and the acceptor absorption spectrum. Energy transfer efficiency (E) can be used to evaluate the distance (r) between zinc complexes (acceptor) and BSA (donor) in protein using Equation (8), (8) E=1−F/F0=R06/R06+r^6 where F and F0 are the fluorescence intensity of BSA in the presence and absence of the acceptor, respectively, r is the distance between the acceptor and donor, R0 is the critical distance for 50% energy transfer and can be calculated using Equation (9), (9) R06=8.8×10^−25K^2N^−4∅J where the spatial orientation factor of the dipole K^2 = 2/3, the refractive index of the medium (water) N = 1.333, and the fluorescence quantum yield of the donor BSA ∅ = 0.15 [10, 38]. The spectral overlap integral (J), calculated from the overlap of the acceptor UV absorption spectra with the donor fluorescence emission spectra, is given using Equation (10). (10) J=∫0∞Fλε λλ^4dλ/∫0∞Fλdλ

[9] = target: T1, BSA; experiment: Fluorescence quenching of BSA (Stern–Volmer); details: for KSV (called binding constants in conclusions) / Kq: temperature not stated

mean size of self-assembled adduct with BSA [1] [nm] | MIC [2] [µg/mL] | MIC [4] [µg/mL] | MIC [5] [µg/mL] | ΔHº [6] [kcal/mol] | ΔSº [6] [J mol^−1 K^−1] | KA (association constant) ([6]; T = 288 K) | n (number of binding sites) ([6]; T = 288 K) | ΔGº ([6]; T = 288 K) [kcal/mol] | KA (association constant) ([6]; T = 298 K) | n (number of binding sites) ([6]; T = 298 K) | ΔGº ([6]; T = 298 K) [kcal/mol] | KA (association constant) ([6]; T = 308 K) | n (number of binding sites) ([6]; T = 308 K) | ΔGº ([6]; T = 308 K) [kcal/mol] | n (number of binding sites) ([6]; all temperatures) | BSA cathodic peak potential after addition of complex [7] [V] | SMILES | MBC [2] [µg/mL] | MBC [4] [µg/mL] | MBC [5] [µg/mL] | further results
110 | 12.5 | 25.0 | 12.5 | 10 ± 2.39 | 261 ± 35 | 9.9 10^5 M^−1 | 1.12 | -7.93 ± 0.019 | 22.8 10^5 M^−1 | 1.32 | -8.56 ± 0.096 | 30.7 10^5 M^−1 | 1.45 | -9.18 ± 0.19 | ~1 | −0.55 | CC(=Nc1cc(C(C)(C)C)cc(C(C)(C)C)c1[S-])c1cccc(C(C)=Nc2cc(C(C)(C)C)cc(C(C)(C)C)c2[S-])n1.[Zn+2] [DBZ, [Zn(py^tBuN2Me2S2)]] | 25.0 | 50.0 | 25.0 | MBC [3]: 50.0 µg/mL; MIC ([3]; 24 h): 25.0 µg/mL; kR/kO binding constants [7]: 0.43; J (spectral overlap integral) [8]: 9.0 10^−13 L mol^−1 cm^3; R0 (critical distance for 50% energy transfer) [8]: 2.51 nm; r (distance between acceptor and donor) [8]: 3.21 nm; ∫F donor λ Δλ [8]: 79.6; Kq (quenching rate constant) ([9]; T = 288 K): 4.15 10^14 M^−1 s^−1; Ksv (Stern–Volmer quenching constant) ([9]; T = 288 K): 19.0 10^5 M^−1; Kq (quenching rate constant) ([9]; T = 298 K): 5.40 10^14 M^−1 s^−1; Ksv (Stern–Volmer quenching constant) ([9]; T = 298 K): 24.7 10^5 M^−1; Kq (quenching rate constant) ([9]; T = 318 K): 5.97 10^14 M^−1 s^−1; Ksv (Stern–Volmer quenching constant) ([9]; T = 318 K): 27.3 10^5 M^−1; DBZ binds to BSA more than DBZH4 ([9]; ratio of KSV, DBZ over DBZH4): ~30 fold; DBZ binds stronger than DBZH4 ([9]; ratio of binding constants, conclusions): about 35 times; KSV (called binding constants in conclusions) [9]: 2.47e+06 M⁻¹; Kq [9]: 5.4e+14 M⁻¹ s⁻¹
339 | 15.0 | 30.0 | 15.0 | 15.5 ± 0.48 | 304 ± 6 | 0.13 10^5 M^−1 | 1.22 | -5.4 ± 0.072 | 0.31 10^5 M^−1 | 1.40 | -6.12 ± 0.048 | 0.76 10^5 M^−1 | 1.42 | -6.84 ± 0.048 | ~1 | −0.57 | CC(Nc1cc(C(C)(C)C)cc(C(C)(C)C)c1[S-])c1cccc(C(C)Nc2cc(C(C)(C)C)cc(C(C)(C)C)c2[S-])n1.[Zn+2] (centres unmarked) [DBZH4, [Zn(py^tBuN2H4Me2S2)]] | 30.0 | 60.0 | 30.0 | size range of self-assembled adduct with BSA [1]: 100–1000 nm; kR/kO binding constants [7]: 0.48; J (spectral overlap integral) [8]: 5.4 10^−13 L mol^−1 cm^3; R0 (critical distance for 50% energy transfer) [8]: 2.31 nm; r (distance between acceptor and donor) [8]: 3.67 nm; ∫F donor λ Δλ [8]: 90.0; Kq (quenching rate constant) ([9]; T = 288 K): 0.150 10^14 M^−1 s^−1; Ksv (Stern–Volmer quenching constant) ([9]; T = 288 K): 0.69 10^5 M^−1; Kq (quenching rate constant) ([9]; T = 298 K): 0.153 10^14 M^−1 s^−1; Ksv (Stern–Volmer quenching constant) ([9]; T = 298 K): 0.70 10^5 M^−1; Kq (quenching rate constant) ([9]; T = 318 K): 0.155 10^14 M^−1 s^−1; Ksv (Stern–Volmer quenching constant) ([9]; T = 318 K): 0.71 10^5 M^−1; KSV (called binding constants in conclusions) [9]: 70000 M⁻¹; Kq [9]: 1.5e+13 M⁻¹ s⁻¹
